Data: paper PMC7355430, “Imunofan—RDKVYR Peptide—Stimulates Skin Cell Proliferation and Promotes Tissue Repair” (Molecules, 2020)
Where “and” joins values, the source holds several entries; their conditions need not be identical. Equal values may be shown once. Peptide text beside a SMILES is read from it.

Experiments:
BALB/c mice = assay: Ear pinna injury, ear punch closure; type: in vivo, mouse
Method: Experiments were performed on 8–12 week-old female BALB/c (24 mice in total) and C57BL/6 mice (36 mice in total). All mice originated from the Centre for Experimental Medicine of the Medical University of Białystok, Poland, and were kept in the animal facility at the Nencki Institute of Experimental Biology throughout the course of the study. After delivery to the Nencki Institute animal facility, mice rested for at least two weeks for acclimatization before starting the experiment. Experiments were approved by the First Local Ethics Committee in Warsaw (permit No. 491/2013 and 542/2018). Animal experimentation was performed in accordance with EU directive 2010/63/EU, and all experiments were undertaken in such a way as to minimize discomfort and the number of animals used in the study.
Mice were placed individually in separate cages, weighed, and randomly divided into two groups within each mouse strain: The treatment group and the control group. Before the study all mice were randomly given numerical equivalents, and all experimenters performing further analysis were not aware of the experimental group and referred solely to those numbers. Similarly, vials containing IM (treatment) or saline (control) were encrypted and assigned to particular mice, so the person performing injections and ear photographs was not aware of mice background. Lastly, the person quantifying each ear hole closure was not aware of the group. Numerical equivalents of each mice were only decrypted at the end of the study. Before study each animal was anesthetized with Isoflurane (Iso-Vet; Piramal, UK), ears were quickly disinfected with 70% isopropanol and circular punches 2 mm in diameter were made in the center of both ear pinnae using disposable biopsy punches (Integra Miltex; Integra Life Sciences, Princeton, NJ, USA). Due to some occasional self-inflicted injuries (tearing off one or both ear lobes) during the course of the study, the measurement data from destroyed lobes were excluded from comparisons of the next time points. […]
To monitor the progress of wound healing, ears were photographed on the day of the injury (day 0, before and right after pinna injury), and on days 7, 14, 21, 28, 35, and 42. […] Finally, the area of the wound hole was outlined by hand on digitized images as an overlay, and the hole areas in the ears were evaluated using computer-assisted image analysis (ImageJ Software). […] The final number of analyzed ears was 23 per group on day 42. […] The final number of analyzed ears on day 42 was 32 in the control group and 16 in the treatment group. […]

[1] = tested on: adipose-derived stem cells (ASCs); assay: LDH cytotoxicity assay; type: cell-based, human; details: 50–150 µg/mL, 48 h, serum-free medium; n=12 (Figure S5)
Method: (§1) Cell death was quantified by measurement of lactate dehydrogenase activity in cell culture supernatants (Takara, Japan, cat. No. MK401), following the manufacturer’s instructions. Cells were seeded into 96-well plates (BD, cat.no. 353872), at a density of 5000 cells per well, in medium (DMEM) supplemented with 10% FBS. After 24 h, the medium was changed to serum-free medium containing appropriate concentrations of IM peptide. After 48 h of stimulation supernatants were collected for LDH analysis. Cell death was normalized with respect to untreated control (without IM). Non-IM treated cells were used as negative control (0%) and Triton-X 100 (1%) was used as the positive control for maximum LDH release (maximum cytotoxicity, 100%). The assay was performed to IM in concentrations of 50–150 µg/mL.

HaCaT keratinocytes [2] = assay: LDH cytotoxicity assay; type: cell-based, human; details: 50–150 µg/mL, 48 h, serum-free medium; n=16 (Figure S5)
Method: as §1

46BR.1N fibroblasts = assay: LDH cytotoxicity assay; type: cell-based, human; details: 50–150 µg/mL, 48 h, serum-free medium; n=16 (Figure S5)
Method: as §1

skin cells = assay: Migration assay, ibidi culture inserts; type: cell-based, human; details: 0.1 and 1 µg/mL, 24 h
Method: (§2) The effect of IM on cell migration after 24 h was determined using ibidi culture inserts (ibidi, Cat. No. 81176, Gräfelfing, Germany). Cells were seeded in culture inserts, at a density of 30,000 per well, in appropriate medium supplemented with 10% FBS, which was changed to serum-free DMEM after 24 h. Mitomycin C (5 μg/mL) was added for 2 h to block cell proliferation. The medium was then changed, again, and cells were stimulated with an appropriate concentration of IM. After 24 h the cells were fixed with 3.7% paraformaldehyde, stained with 0.05% crystal violet, and the effect was measured with a phase-contrast fluorescent microscope (Zeiss, Oberkochen, Germany) and the surface areas were counted with Imaging Software NIS-Element Basic Research program.

ASCs = assay: Migration assay, ibidi culture inserts; type: cell-based, human; details: 0.1 µg/mL, 24 h; n=16
Method: as §2

HaCaT keratinocytes [3] = assay: Migration assay, ibidi culture inserts; type: cell-based, human; details: 0.1 and 1 µg/mL, 24 h, mitomycin C pre-treatment, serum-free; n=12 (Figure S7A)
Method: as §2

patients = tested on: patients; set-up: method as in PMID 18475748; details: subcutaneous injection in patients, response to diphtheria toxoid vaccination; cited from earlier work

CC(C)[C@H](NC(=O)[C@H](CCCCN)NC(=O)[C@H](CC(=O)O)NC(=O)[C@@H](N)CCCNC(=N)N)C(=O)N[C@@H](Cc1ccc(O)cc1)C(=O)N[C@@H](CCCNC(=N)N)C(=O)O [IM, H-Arg-Asp-Lys-Val-Tyr-Arg-OH] (H-RDKVYR-OH)
histology of the epidermis in healed ear pinna (BALB/c mice; 42 days after injury, hematoxylin and eosin): signs of parakeratosis
mean ear hole area (BALB/c mice; day 42 post-injury, 2 mm punch, s.c. 5.0 µg/g, 10 injections, mean ± SD, saline control 1.96 ± 0.48): 1.69 ± 0.38 mm^2
wound closure (ear hole closure) (BALB/c mice; day 42 post-injury, s.c. 5.0 µg/g, 10 injections, mean ± SD, saline control 37.9% ± 14.2%): 46.2% ± 12.2% and 46%
tissue repair in comparison to control (BALB/c mice; ear pinna injury, as summarised in the abstract): 8%
cytotoxicity (LDH release) [1]: not cytotoxic
cytotoxicity (LDH release) (HaCaT keratinocytes [2]): not cytotoxic
cytotoxicity (LDH release) (46BR.1N fibroblasts): not cytotoxic
stimulation of migration of skin cells (skin cells): does not stimulate migration
promigratory effect compared to the control (ASCs): 10–15%
inhibition of migration compared to the control (HaCaT keratinocytes [3]): 5–10%
levels of interleukin-6 (IL-6) and tumor necrosis factor (TNF) (patients): decreasing levels
